Where two headings read alike, the source gives them in different places.
Key:
[1] = target: T1, UBE2K (Homo sapiens, UniProt P61086); details: Strickson et al., 2013; cited from earlier work
T1 sequence (P61086 1-200): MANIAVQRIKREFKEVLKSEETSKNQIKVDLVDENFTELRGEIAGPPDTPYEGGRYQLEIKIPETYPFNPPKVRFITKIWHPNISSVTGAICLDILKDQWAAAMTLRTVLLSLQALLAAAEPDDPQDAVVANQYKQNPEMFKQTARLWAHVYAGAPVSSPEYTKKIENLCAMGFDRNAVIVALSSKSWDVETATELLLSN

[2] = tested on: BT549 cells; assay: Cell number/viability by Cell Titer Fluor after siRNA transfection; format: cell-based; details: Homo sapiens, BT-549, doxorubicin 72 h
Method: (§1) For initial validation studies, UBE2K was transiently knocked down using an siRNA mediated approach in Miapaca2, HepG2, SKHEP1, Hep3B, MDAMB231, SKBR3, T47D and BT549 cells. A non-targeting (NT) siRNA sequence was used as a control. Samples for confirmation of knock down at transcript and protein level were harvested 24 and 96 h post transfection, and the effect of UBE2K transient knock down was assessed on cell viability/cell number using Cell Titer Fluor at 96 h post transfection. In parallel, the effect of siRNA mediated UBE2K knock down on doxorubicin (cell death causing agent) sensitivity was assessed in the above mentioned cell lines. Cell were exposed to doxorubicin for 72 h beginning 24 h post transfection.

[3] = tested on: SKHEP1 hepatocellular carcinoma cells; assay: as above; format: cell-based; details: Homo sapiens, SK-HEP1, doxorubicin 72 h
Method: as §1

[4] = tested on: T47D cells; assay: as above; format: cell-based; details: Homo sapiens, doxorubicin 72 h
Method: as §1

Row | IC50 ([2]; BT549, UBE2K siRNA knockdown, read-out: UBE2K siRNA 95% CI IC50) | IC50 ([2]; BT549, control siRNA, read-out: Control siRNA 95% CI KSO) | IC50 ([3]; SKHEP1, UBE2K siRNA knockdown, read-out: UBE2K siRNA 95% CI IC50) | IC50 ([3]; SKHEP1, control siRNA, read-out: Control siRNA 95% CI KSO) | IC50 ([4]; UBE2K siRNA knockdown, read-out: UBE2K siRNA 95% CI IC50) | IC50 ([4]; control siRNA, read-out: Control siRNA 95% CI KSO) | Compound | Loading of ubiquitin onto E2 conjugating enzymes such as UBE2K [1]
1 | – | – | – | – | – | – | Cc1ccc(S(=O)(=O)/C=C/C#N)cc1 [BAY 11-7082, (E)3-[(4-Methylphenyl)sulfonyl]-2-propenenitrile] | inhibit the loading of ubiquitin onto E2 conjugating enzymes
2 | 91.2 to 243 nM | 165 to 381 nM | 10.1 to 13.7 nM | 8.58 to 11.3 nM | 96.1 to 220 nM | 112 to 290 nM | COc1cccc2c1C(=O)c1c(O)c3c(c(O)c1C2=O)C[C@@](O)(C(=O)CO)C[C@@H]3O[C@H]1C[C@H](N)[C@H](O)[C@H](C)O1 [doxorubicin] | –

— US20210252036A1, “METHODS OF TREATING CANCER BY INHIBITING UBIQUITIN CONJUGATING ENZYME E2 K (UBE2K)” (Berg LLC, priority 2018, published 2021)
